From PMC5727260, “The Sam-Sam interaction between Ship2 and the EphA2 receptor: design and analysis of peptide inhibitors” (Scientific Reports, 2017)
Positions of bridges follow the written chain, without caps; N, C: chain ends. Residues, ends and D or L forms follow the SMILES beside them. Chains are numbered I, II in the order given.

Columns and labels:
Ship2-Sam = biological target: T1, Ship2-Sam (Homo sapiens, UniProt O15357); test: SPR binding of peptides to immobilized Ship2-Sam; details: for SPR binding to Ship2-Sam (RUmax): RUmax at 30 and 100 µM peptide, normalized for molecular weight
T1 construct: Its C-terminal sterile alpha motif domain (Ship2-Sam); made in house; host or cells: E. coli
T1 sequence (O15357 1196-1258 limits assumed): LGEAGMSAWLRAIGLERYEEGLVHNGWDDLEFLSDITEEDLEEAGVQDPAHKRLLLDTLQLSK
Protocol: In order to investigate the interaction with Ship2-Sam, all peptides were analysed by SPR experiments (Figs 2, 3 and S5).
SPR experiments were conducted as previously reported.
SPR assays were conducted with the following parameters: (i) flow: 20 μL/min, (ii) contact time: 4.5 min; (iii) running buffer: HBS (HEPES (10 mM), NaCl (150 mM), EDTA (3 mM), pH 7.4).
Reference channel signals were subtracted as blanks and the software BIAevaluation (version 4.1, GE Healthcare) was employed to estimate kinetic and thermodynamic parameters of the complexes.

EphA2 SAM (Homo sapiens) = EphA2 SAM (Homo sapiens) (UniProt P29317); test: ITC; details: cited from earlier work
Chain of EphA2 SAM (Homo sapiens) (P29317 901-971): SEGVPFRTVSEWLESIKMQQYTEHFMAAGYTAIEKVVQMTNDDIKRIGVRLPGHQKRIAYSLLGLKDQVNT

Molecule | SPR binding to Ship2-Sam (RUmax) (Ship2-Sam) | SPR sensorgrams, saturation (Ship2-Sam; wider concentration range (Fig. S5b)) | Kd (EphA2 SAM (Homo sapiens)) [nM]
CC[C@H](C)[C@H](NC(=O)[C@H](CCCNC(=N)N)NC(=O)[C@H](CCCCN)NC(C)=O)C(=O)NCC(=O)N[C@H](C(=O)N[C@@H](CCCNC(=N)N)C(=O)N[C@@H](CC(C)C)C(=O)N1CCC[C@H]1C(=O)NCC(=O)N[C@@H](Cc1c[nH]cn1)C(=O)N[C@@H](CCC(N)=O)C(=O)N[C@@H](CCCCN)C(=O)N[C@@H](CCCNC(=N)N)C(=O)N[C@@H](CSSC[C@H](NC(=O)[C@H](CO)NC(C)=O)C(=O)N[C@@H](CCCCN)C(=O)N[C@@H](CCSC)C(=O)N[C@@H](CCC(N)=O)C(=O)N[C@@H](CCC(N)=O)C(N)=O)C(=O)N[C@@H](C)C(=O)N[C@@H](Cc1ccc(O)cc1)C(=O)N[C@@H](CO)C(=O)N[C@@H](CC(C)C)C(=O)N[C@@H](CC(C)C)C(=O)NCC(=O)N[C@@H](CC(C)C)C(=O)N[C@@H](CCCCN)C(=O)N[C@@H](CC(=O)O)C(=O)N[C@@H](CCC(N)=O)C(=O)N[C@H](C(N)=O)C(C)C)C(C)C [S13-SS] (I: Ac-KRIGVRLPGHQKRCAYSLLGLKDQV-NH2 / II: Ac-SCKMQQ-NH2; disulfide I:14-II:2) | significant dose-response signal variations | does not reach saturation | 
Ac-KRIAYKRIAY-NH2 [(KRI)2] | not able to bind Ship2-Sam |  | 
Ac-GHQKRIAY-NH2 [KRI] | not able to bind Ship2-Sam |  | 
Ship2 SAM (from UniProt O15357) |  |  | 750
